Source: paper PMC8976226 (Mutagenesis, 2022)
Where a name gives a salt, the structure may show the parent alone. Read-outs that look alike come from different tables or passages of the source.

Columns and labels:
GADD45a gene [1] = settings: published fragrance safety assessment; cited from earlier work
[2] = system: human peripheral lymphocytes; settings: cited from earlier work
GADD45a gene [3] = assay: BlueScreen HC assay; settings: fragrance materials, TK6 cells
mammalian cell = assay: In vitro mammalian cell micronucleus test; format: cell-based; settings: overall outcome in current dataset
mouse = settings: cited from earlier work
[4] = weight of evidence of all available in vitro and in vivo data
[5] = system: Salmonella typhimurium, Escherichia coli tester strains; assay: Bacterial reverse mutation test; format: cell-based; settings: overall outcome
L5178 TK +/− cell = settings: cited from earlier work
[6] = system: Salmonella typhimurium, Escherichia coli tester strains; settings: cited from earlier work
[7] = system: Chinese hamster V79 cells; settings: cited from earlier work
[8] = cited from earlier work
[9] = system: Chinese hamster lung, ovary, or fibroblast cells; settings: ref RIFM Database, cited from earlier work; for chromosomal aberration assay result: Chinese hamster lung, ovary, or fibroblast cells
[10] = system: reconstructed skin (EpiDerm™); settings: cited from earlier work
mice = settings: cited from earlier work

Structure (SMILES): CCCCCCC(OCC)OCC [1,1-diethoxyheptane]
- BlueScreen HC result (GADD45a gene [1]): negative

Structure (SMILES): CC12CCCC(C)(CC1)C2=NO [1,5-dimethylbicyclo[3.2.1]octan-8-one-oxime]
- in vitro micronucleus assay result ([2]; 3- and 24- h time points with and without metabolic activation): Positive
- BlueScreen HC result (GADD45a gene [3]): negative
- in vitro MNT result (mammalian cell): positive
- in vivo micronucleus test result (mouse): negative
- genotoxic potential conclusion (WoE) [4]: not genotoxic

Structure (SMILES): CC(=O)C1CC(C)=CC(C)C1C (stereo not shown) [1-(3,5,6-trimethyl-3-cyclohexen-1-yl)ethan-1-one]
- in vitro micronucleus assay result [2]: negative
- Ames assay result [5]: positive
- BlueScreen HC result (GADD45a gene [3]): negative
- mammalian cell line mutagenicity study (HPRT) result (L5178 TK +/− cell): negative
- Ames assay result ([6]; Escherichia coli strain WP2uvrA without metabolic activation): positive
- Ames assay result, third confirmatory study ([6]; similar concentrations, E. coli WP2uvrA or TA102): no positive effects
- genotoxic potential conclusion (WoE) [4]: unlikely to have genotoxic potential in vivo

Structure (SMILES): CC(=CC#N)CCc1ccccc1 [3-methyl-5-phenylpent-2-enenitrile]
- in vitro micronucleus assay result ([7]; 4-h time point with metabolic activation): Positive
- BlueScreen HC result (GADD45a gene [3]): negative
- in vitro MNT result (mammalian cell): positive
- in vivo micronucleus test result (mouse): negative
- genotoxic potential conclusion (WoE) [4]: not genotoxic

Structure (SMILES): CC(C)C12CCC(C)(O)C1C2 (stereo not shown) [4-thujanol]
- in vitro micronucleus study result ([2]; 4-h time point, absence of metabolic activation): positive
- BlueScreen HC result (GADD45a gene [3]): negative
- in vitro MNT result (mammalian cell): positive
- in vivo micronucleus study result (mouse): negative

Structure (SMILES): Cc1cccc2nccnc12 [5-methylquinoxaline]
- in vitro micronucleus study result ([2]; 4-h treatment): negative
- in vitro micronucleus study result ([2]; without metabolic activation, 24-h treatment): positive
- BlueScreen HC result (GADD45a gene [3]): negative
- in vivo micronucleus assays result ([8]; two assays): negative
- in vitro MNT result (mammalian cell): positive
- genotoxic potential conclusion (WoE) [4]: devoid of genotoxic activity in vivo

Structure (SMILES): CC(C)C(=O)O [Isobutyric acid]
- Ames test result [6]: negative

Structure (SMILES): COc1ccc(COC=O)cc1 [anisyl formate]
- in vitro micronucleus assay result [2]: negative
- BlueScreen HC result (GADD45a gene [3]): negative
- mammalian cell line mutagenicity study (MLA/HPRT) result (L5178 TK +/− cell): negative

Structure (SMILES): N#C/C=C/c1ccccc1 [cinnamyl nitrile, Cinnamyl nitrile]
- in vitro micronucleus result ([7]; Chinese hamster V79 cells): negative
- BlueScreen HC result (GADD45a gene [3]): negative
- genotoxic potential conclusion (WoE) [4]: lack genotoxic potential in vivo
- chromosomal aberration assay result [9]: positive

Structure (SMILES): COC1CC2CCC1(C)C2(C)C (stereo not shown) [isobornyl methyl ether]
- in vitro micronucleus confirmatory assay result ([2]; confirmatory assay, dose response not observed): increases only at the highest dose level
- in vitro micronucleus study result ([2]; presence of metabolic activation, 4-h time point): positive
- 3D skin micronucleus study result [10]: negative
- BlueScreen HC result (GADD45a gene [3]): negative
- in vitro MNT result (mammalian cell): positive

Structure (SMILES): CC(C)CO [isobutyl alcohol]
- in vivo micronucleus test result [8]: negative

Structure (SMILES): COC(=O)CC(C)=O [methyl acetoacetate, Methyl acetoacetate]
- in vitro micronucleus result ([2]; human lymphocytes): negative
- BlueScreen HC result (GADD45a gene [3]): negative
- genotoxic potential conclusion (WoE) [4]: lack genotoxic potential in vivo
- chromosomal aberration assay result [9]: positive

Structure (SMILES): COC(=O)c1ccccc1N [methyl anthranilate, Methyl anthranilate]
- BlueScreen HC result (GADD45a gene [3]): negative
- 2-year in vivo carcinogenicity study result (mice): did not show any carcinogenic effects
- in vitro chromosomal aberration study result ([9]; Chinese hamster fibroblast cell line (B 241)): positive
- chromosomal aberration assay result [9]: positive

Structure (SMILES): CC(=O)/C=C/C1C(C)=CCCC1(C)C (stereo not drawn) [α-ionone, α-Ionone]
- in vitro micronucleus study result ([2]; human peripheral lymphocytes): negative
- BlueScreen HC result (GADD45a gene [3]): negative
- in vivo mouse micronucleus study result (mouse): negative
- genotoxic potential conclusion (WoE) [4]: lack genotoxic potential in vivo
- chromosomal aberration assay result [9]: positive
